Here are results for 40 compounds from ChEMBL document CHEMBL4814080, “Design, Synthesis, and Biological Evaluation of Novel 1,3-Oxazole Sulfonamides as Tubulin Polymerization Inhibitors” (ACS Med Chem Lett, 2021).

Format in all cases: functional
In test [1] the test system is Panel NCI-60 (60 carcinoma cell lines). Nature of the test: Cytotoxicity against human Panel NCI-60 (60 carcinoma cell lines) assessed as cell growth at 10 uM after 48 hrs by sulforhodamine B assay relative to control. The settings on record: read-out: Activity. In general terms: Sulforhodamine B stains cellular protein and so reports cell mass.
The test system of test [2] is leukaemia cell line. Nature of the test: Cytotoxicity against human leukaemia cell line assessed as cell growth inhibition measured after 48 hrs by sulforhodamine B assay. The settings on record: for CC50: read-out: LC50 (the source's name).
Test [3] concerns Panel NCI-60 (60 carcinoma cell lines). Nature of the test: Cytotoxicity against human Panel NCI-60 (60 carcinoma cell lines) assessed as cell growth inhibition measured after 48 hrs by sulforhodamine B assay.

For orientation: GI50 means the concentration at which growth is held to half of that of the control. As a reminder, the TGI is the concentration at which net growth stops. For `O=S(=O)(Nc1cccc(Cl)c1)c1ccc(-c2cnc(C3CC3)o2)cc1`, in test [1], the growth at 10 µM worked out at 24.2%. Also, in test [2], the GI50 came to 0.477 µM, the TGI came out at 54.2 µM and the CC50 was over 100 µM.
Take `O=S(=O)(Nc1cc(F)cc(F)c1)c1ccc(-c2cnc(C3CC3)o2)cc1`: the growth at 10 µM in test [1] amounted to 35.4%. Further, in test [2], the GI50 came out at 2.14 µM, the TGI was determined as 80 µM and the CC50 was over 100 µM.
In the case of `O=S(=O)(Nc1ccc(I)cc1Cl)c1ccc(-c2cnc(C3CC3)o2)cc1`, in test [1], the growth at 10 µM worked out at 39.5%.
The same measure, in the same setting: the same measure for `Cc1ccc(NS(=O)(=O)c2ccc(-c3cnc(C4CC4)o3)cc2)cc1C(F)(F)F`: 60.5%; for `O=S(=O)(Nc1ccc(OC(F)F)cc1)c1ccc(-c2cnc(C3CC3)o2)cc1`: 63.1%.
With `COc1cc(NS(=O)(=O)c2ccc(-c3cnc(C4CC4)o3)cc2)ccc1F`, the growth at 10 µM in test [1] came to 25.9%. Besides, in test [2], the GI50 came out at 0.328 µM, the concentration for total growth inhibition (TGI) came to 75.7 µM and the CC50 is over 100 µM.
Turning to `Cc1ccc(NS(=O)(=O)c2ccc(-c3cnc(C4CC4)o3)cc2)cc1C`, the growth at 10 µM in test [1] came out at 22.8%. Moreover, in test [2], the GI50 was 0.42 µM, the TGI was over 100 µM and the CC50 was over 100 µM.
For `Cc1cc(F)cc(NS(=O)(=O)c2ccc(-c3cnc(C4CC4)o3)cc2)c1`, the growth at 10 µM in test [1] turned out to be 28.1%. For the same compound, in test [2], the GI50 stood at 0.138 µM, the TGI came to 7.25 µM and the CC50 is 78 µM.
In the case of `O=S(=O)(Nc1ccc(F)cc1F)c1ccc(-c2cnc(C3CC3)o2)cc1`, the growth at 10 µM in test [1] is 29.1%. Further, in test [2], the GI50 stood at 0.356 µM, the TGI was determined as 66 µM and the CC50 was over 100 µM.
`CN(c1ccc(Br)cc1)S(=O)(=O)c1ccc(-c2cnc(C3CC3)o2)cc1`: in test [1], the growth at 10 µM is 31.4%. Also, the concentration for 50% growth inhibition (GI50) in test [3] came out at 3.92 µM.
For the compound `O=S(=O)(Nc1cc(Cl)cc(Cl)c1)c1ccc(-c2cnc(C3CC3)o2)cc1`, the growth at 10 µM in test [1] was found to be 36.9%.
With `O=S(=O)(Nc1cc(Cl)ccc1Cl)c1ccc(-c2cnc(C3CC3)o2)cc1`, in test [1], the growth at 10 µM was 34.6%. Moreover, in test [2], the 50% growth inhibitory concentration (GI50) came to 1.02 µM, the TGI was over 100 µM and the CC50 is over 100 µM.
On to `Cc1cc(Cl)cc(NS(=O)(=O)c2ccc(-c3cnc(C4CC4)o3)cc2)c1`, for which the growth at 10 µM in test [1] was 31.6%. Moreover, in test [2], the GI50 came out at 0.175 µM, the total growth inhibition concentration (TGI) came to 7.04 µM and the CC50 stood at 84.9 µM.
As for `O=S(=O)(Nc1cc(Cl)c(F)c(Cl)c1)c1ccc(-c2cnc(C3CC3)o2)cc1`, the growth at 10 µM in test [1] stood at 37.1%.
The same measure, in the same setting: then `O=S(=O)(Nc1ccc(C(F)(F)F)c(Cl)c1)c1ccc(-c2cnc(C3CC3)o2)cc1`, with 77.1%.
For `O=S(=O)(Nc1ccc(Cl)c(F)c1)c1ccc(-c2cnc(C3CC3)o2)cc1`, the growth at 10 µM in test [1] was found to be 23.8%. In test [2], the 50% growth inhibitory concentration (GI50) was 0.38 µM, the total growth inhibition concentration (TGI) came to 63 µM and the CC50 is over 100 µM.
Regarding `O=S(=O)(Nc1ccc(C2CC2)cc1)c1ccc(-c2cnc(C3CC3)o2)cc1`, the growth at 10 µM in test [1] was 63.4%.
Still for that read-out and setting: then `O=S(=O)(Nc1ccc2c(c1)OCO2)c1ccc(-c2cnc(C3CC3)o2)cc1`, with 35.8%.
Same read-out and setting: then `O=S(=O)(Nc1ccc(I)cc1F)c1ccc(-c2cnc(C3CC3)o2)cc1`, with 49.8%; and `O=S(=O)(Nc1ccc(I)cc1)c1ccc(-c2cnc(C3CC3)o2)cc1`, with 57.3%.
With `O=S(=O)(Nc1ccc(I)c(Cl)c1)c1ccc(-c2cnc(C3CC3)o2)cc1`, the growth at 10 µM in test [1] is 29.8%. In test [2], the GI50 was 1.01 µM, the TGI came out at 19.6 µM and the CC50 is over 100 µM.
Taken in the same sequence, the figures for `Cc1ccc(Cl)c(NS(=O)(=O)c2ccc(-c3cnc(C4CC4)o3)cc2)c1` were 25.3%, 0.0488 µM, 52.8 µM and over 100 µM.
As to `CN(c1ccc(Cl)cc1)S(=O)(=O)c1ccc(-c2cnc(C3CC3)o2)cc1`, the growth at 10 µM in test [1] amounted to 30.6%.
Regarding `CN(c1ccc(F)cc1)S(=O)(=O)c1ccc(-c2cnc(C3CC3)o2)cc1`, the growth at 10 µM in test [1] came out at 31.8%. Further, the concentration for 50% growth inhibition (GI50) in test [3] was found to be 1.18 µM.
`Cc1cc(Cl)ccc1NS(=O)(=O)c1ccc(-c2cnc(C3CC3)o2)cc1`: the growth at 10 µM in test [1] was 24%. Also, in test [2], the GI50 was found to be 0.277 µM, the TGI turned out to be 54.7 µM and the CC50 is over 100 µM.
In the same order, the values of `O=S(=O)(Nc1ccccc1Cl)c1ccc(-c2cnc(C3CC3)o2)cc1` are 27.4%, 0.429 µM, 49.7 µM and over 100 µM.
With `N#Cc1ccc(NS(=O)(=O)c2ccc(-c3cnc(C4CC4)o3)cc2)cc1`, the growth at 10 µM in test [1] amounted to 95.7%.
With `O=S(=O)(Nc1cc(F)cc(Cl)c1)c1ccc(-c2cnc(C3CC3)o2)cc1`, in test [1], the growth at 10 µM was found to be 30.3%. For the same compound, in test [2], the concentration for 50% growth inhibition (GI50) was 1.44 µM, the concentration for total growth inhibition (TGI) was 77.5 µM and the CC50 was over 100 µM.
As to `CC(=O)c1ccc(NS(=O)(=O)c2ccc(-c3cnc(C4CC4)o3)cc2)cc1`, the growth at 10 µM in test [1] amounted to 93.5%.
Still for that read-out and setting: the same measure for `COc1ccc(NS(=O)(=O)c2ccc(-c3cnc(C4CC4)o3)cc2)cc1`: 56.1%; for `O=S(=O)(Nc1ccc(N2CCOCC2)c(F)c1)c1ccc(-c2cnc(C3CC3)o2)cc1`: 92.2%.
`O=S(=O)(Nc1ccc(F)c(Cl)c1)c1ccc(-c2cnc(C3CC3)o2)cc1`: in test [1], the growth at 10 µM was found to be 23%. Also, in test [2], the GI50 was 0.26 µM, the TGI came to 73.7 µM and the CC50 is over 100 µM.
Regarding `O=C1COCCN1c1ccc(NS(=O)(=O)c2ccc(-c3cnc(C4CC4)o3)cc2)cc1`, the growth at 10 µM in test [1] worked out at 96.7%.
For `COc1ccc(NS(=O)(=O)c2ccc(-c3cnc(C4CC4)o3)cc2)cc1Cl`, the growth at 10 µM in test [1] amounted to 32.6%.
For `O=S(=O)(Nc1cccc2ccccc12)c1ccc(-c2cnc(C3CC3)o2)cc1`, the growth at 10 µM in test [1] was 28.6%. In test [2], the concentration for 50% growth inhibition (GI50) came to 0.0447 µM, the TGI was 22.5 µM and the CC50 was over 100 µM.
Consider `O=S(=O)(Nc1ccc2c(c1)OC(F)(F)O2)c1ccc(-c2cnc(C3CC3)o2)cc1`, for which, in test [1], the growth at 10 µM came to 41.7%.
Turning to `Cc1cc(NS(=O)(=O)c2ccc(-c3cnc(C4CC4)o3)cc2)ccc1I`, the growth at 10 µM in test [1] turned out to be 35.9%.
Still for that read-out and setting: then `Cc1ccc(NS(=O)(=O)c2ccc(-c3cnc(C4CC4)o3)cc2)cc1`, with 33.1%.
Consider `O=S(=O)(Nc1ccc(Cl)cc1Cl)c1ccc(-c2cnc(C3CC3)o2)cc1`, for which the growth at 10 µM in test [1] was determined as 25%. Moreover, in test [2], the GI50 amounted to 0.481 µM, the TGI is 74.5 µM and the CC50 is over 100 µM.
As for `O=S(=O)(Nc1ccc(C(F)(F)F)cc1)c1ccc(-c2cnc(C3CC3)o2)cc1`, the growth at 10 µM in test [1] came to 94.5%.
